Tests used:
[1] = target: T1, Tyrosine-protein kinase JAK3 (Homo sapiens, UniProt P52333); assay: Inhibition of JAK3 (unknown origin) using tyrosine 6 peptide as substrate by z'-lyte assay
T1 sequence (P52333 whole entry): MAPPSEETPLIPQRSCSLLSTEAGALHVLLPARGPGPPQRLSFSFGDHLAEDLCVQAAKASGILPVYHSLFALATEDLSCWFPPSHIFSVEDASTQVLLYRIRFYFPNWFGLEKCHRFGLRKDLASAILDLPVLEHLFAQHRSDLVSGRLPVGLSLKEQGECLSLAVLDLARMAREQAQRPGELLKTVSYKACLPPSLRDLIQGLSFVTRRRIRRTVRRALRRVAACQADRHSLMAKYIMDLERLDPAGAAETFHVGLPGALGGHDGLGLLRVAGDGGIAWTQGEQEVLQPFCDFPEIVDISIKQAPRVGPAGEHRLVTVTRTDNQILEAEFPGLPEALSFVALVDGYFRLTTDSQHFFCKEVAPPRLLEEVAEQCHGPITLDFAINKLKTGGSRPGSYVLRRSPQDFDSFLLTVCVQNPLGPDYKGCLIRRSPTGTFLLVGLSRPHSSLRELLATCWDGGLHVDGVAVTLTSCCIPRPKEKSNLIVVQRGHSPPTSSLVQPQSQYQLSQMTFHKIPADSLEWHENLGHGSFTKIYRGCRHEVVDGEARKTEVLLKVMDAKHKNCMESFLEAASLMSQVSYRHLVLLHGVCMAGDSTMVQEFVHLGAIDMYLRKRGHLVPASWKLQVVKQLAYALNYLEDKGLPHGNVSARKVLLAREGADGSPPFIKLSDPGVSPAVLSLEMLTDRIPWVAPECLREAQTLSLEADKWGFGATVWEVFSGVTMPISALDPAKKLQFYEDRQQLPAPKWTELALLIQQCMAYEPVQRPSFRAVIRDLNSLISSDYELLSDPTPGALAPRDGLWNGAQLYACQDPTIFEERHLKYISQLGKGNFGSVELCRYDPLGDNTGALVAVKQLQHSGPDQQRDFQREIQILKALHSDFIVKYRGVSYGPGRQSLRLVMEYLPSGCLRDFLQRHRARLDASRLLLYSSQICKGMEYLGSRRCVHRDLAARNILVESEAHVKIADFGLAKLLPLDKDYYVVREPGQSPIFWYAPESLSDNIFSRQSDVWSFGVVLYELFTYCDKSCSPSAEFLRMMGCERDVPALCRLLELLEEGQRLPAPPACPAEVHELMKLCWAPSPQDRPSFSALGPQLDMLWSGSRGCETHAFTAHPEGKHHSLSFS

[2] = target: Non-receptor tyrosine-protein kinase TYK2 (Homo sapiens, UniProt P29597); assay: Inhibition of TYK2 (unknown origin) using tyrosine 3 peptide as substrate by z'-lyte assay
Sequence of Non-receptor tyrosine-protein kinase TYK2 (P29597 whole entry): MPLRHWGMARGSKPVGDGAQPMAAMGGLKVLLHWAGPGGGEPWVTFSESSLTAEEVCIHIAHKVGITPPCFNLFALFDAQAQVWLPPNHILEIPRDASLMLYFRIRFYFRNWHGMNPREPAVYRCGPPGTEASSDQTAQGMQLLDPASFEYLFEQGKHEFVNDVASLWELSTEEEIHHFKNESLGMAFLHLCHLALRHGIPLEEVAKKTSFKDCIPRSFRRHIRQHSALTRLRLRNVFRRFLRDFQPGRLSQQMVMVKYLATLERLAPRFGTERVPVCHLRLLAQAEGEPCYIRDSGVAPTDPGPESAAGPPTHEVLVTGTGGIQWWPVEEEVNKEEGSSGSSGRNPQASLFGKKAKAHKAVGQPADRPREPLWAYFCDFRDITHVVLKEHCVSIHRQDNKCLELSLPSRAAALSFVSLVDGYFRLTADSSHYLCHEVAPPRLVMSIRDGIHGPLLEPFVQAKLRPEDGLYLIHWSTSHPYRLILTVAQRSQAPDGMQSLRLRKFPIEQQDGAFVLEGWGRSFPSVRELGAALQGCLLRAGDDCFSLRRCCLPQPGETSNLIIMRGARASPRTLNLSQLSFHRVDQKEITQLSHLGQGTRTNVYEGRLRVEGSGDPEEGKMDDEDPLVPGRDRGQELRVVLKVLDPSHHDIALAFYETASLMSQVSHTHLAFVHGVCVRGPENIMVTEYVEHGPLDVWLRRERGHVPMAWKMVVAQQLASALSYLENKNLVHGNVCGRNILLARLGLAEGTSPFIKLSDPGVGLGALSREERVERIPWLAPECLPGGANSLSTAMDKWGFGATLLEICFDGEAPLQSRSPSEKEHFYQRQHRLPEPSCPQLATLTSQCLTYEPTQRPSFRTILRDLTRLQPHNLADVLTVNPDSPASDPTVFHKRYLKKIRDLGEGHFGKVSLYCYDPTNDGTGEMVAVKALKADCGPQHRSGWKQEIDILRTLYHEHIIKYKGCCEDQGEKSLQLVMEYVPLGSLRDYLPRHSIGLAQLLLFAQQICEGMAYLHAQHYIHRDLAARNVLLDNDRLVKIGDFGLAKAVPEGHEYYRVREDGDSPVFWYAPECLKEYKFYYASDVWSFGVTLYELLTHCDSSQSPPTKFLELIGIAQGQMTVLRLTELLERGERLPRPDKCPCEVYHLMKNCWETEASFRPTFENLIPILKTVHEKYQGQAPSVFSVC

[3] = target: Tyrosine-protein kinase JAK1 (Homo sapiens, UniProt P23458); assay: Inhibition of JAK1 (unknown origin) using tyrosine 6 peptide as substrate by z'-lyte assay
Sequence of Tyrosine-protein kinase JAK1 (Homo sapiens, UniProt P23458) (P23458 whole entry): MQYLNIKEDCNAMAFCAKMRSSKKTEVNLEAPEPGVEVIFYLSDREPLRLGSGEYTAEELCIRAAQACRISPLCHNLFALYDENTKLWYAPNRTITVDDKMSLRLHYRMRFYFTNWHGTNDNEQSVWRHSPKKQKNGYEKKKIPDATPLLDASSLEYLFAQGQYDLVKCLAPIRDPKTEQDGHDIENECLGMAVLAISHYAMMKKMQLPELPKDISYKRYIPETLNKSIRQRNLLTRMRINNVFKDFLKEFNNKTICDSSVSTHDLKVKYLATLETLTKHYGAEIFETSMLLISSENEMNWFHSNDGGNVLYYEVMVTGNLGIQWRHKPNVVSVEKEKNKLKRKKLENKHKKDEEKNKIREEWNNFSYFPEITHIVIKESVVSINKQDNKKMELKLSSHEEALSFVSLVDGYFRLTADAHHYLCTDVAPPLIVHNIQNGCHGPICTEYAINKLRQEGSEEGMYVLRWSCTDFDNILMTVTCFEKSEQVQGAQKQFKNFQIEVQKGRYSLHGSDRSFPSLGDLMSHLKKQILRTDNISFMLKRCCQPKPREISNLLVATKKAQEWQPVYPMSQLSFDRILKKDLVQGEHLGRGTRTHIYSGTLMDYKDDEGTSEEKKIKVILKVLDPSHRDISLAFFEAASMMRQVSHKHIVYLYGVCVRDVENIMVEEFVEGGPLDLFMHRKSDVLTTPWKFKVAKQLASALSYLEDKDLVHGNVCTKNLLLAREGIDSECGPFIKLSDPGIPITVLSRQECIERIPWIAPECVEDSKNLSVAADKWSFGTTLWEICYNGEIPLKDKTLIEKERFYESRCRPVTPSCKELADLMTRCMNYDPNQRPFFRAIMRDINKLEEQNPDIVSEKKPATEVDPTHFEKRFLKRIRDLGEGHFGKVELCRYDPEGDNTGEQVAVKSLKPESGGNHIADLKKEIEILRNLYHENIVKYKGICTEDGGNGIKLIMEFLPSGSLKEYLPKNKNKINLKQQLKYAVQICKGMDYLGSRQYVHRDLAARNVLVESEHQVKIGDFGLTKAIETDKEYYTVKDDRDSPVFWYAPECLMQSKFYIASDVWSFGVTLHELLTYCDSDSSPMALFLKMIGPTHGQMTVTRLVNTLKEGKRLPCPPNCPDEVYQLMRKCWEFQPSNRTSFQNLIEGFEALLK

[4] = target: Tyrosine-protein kinase JAK2 (Homo sapiens, UniProt O60674); assay: Inhibition of JAK2 (unknown origin) using tyrosine 6 peptide as substrate by z'-lyte assay
Sequence of Tyrosine-protein kinase JAK2 (O60674 whole entry): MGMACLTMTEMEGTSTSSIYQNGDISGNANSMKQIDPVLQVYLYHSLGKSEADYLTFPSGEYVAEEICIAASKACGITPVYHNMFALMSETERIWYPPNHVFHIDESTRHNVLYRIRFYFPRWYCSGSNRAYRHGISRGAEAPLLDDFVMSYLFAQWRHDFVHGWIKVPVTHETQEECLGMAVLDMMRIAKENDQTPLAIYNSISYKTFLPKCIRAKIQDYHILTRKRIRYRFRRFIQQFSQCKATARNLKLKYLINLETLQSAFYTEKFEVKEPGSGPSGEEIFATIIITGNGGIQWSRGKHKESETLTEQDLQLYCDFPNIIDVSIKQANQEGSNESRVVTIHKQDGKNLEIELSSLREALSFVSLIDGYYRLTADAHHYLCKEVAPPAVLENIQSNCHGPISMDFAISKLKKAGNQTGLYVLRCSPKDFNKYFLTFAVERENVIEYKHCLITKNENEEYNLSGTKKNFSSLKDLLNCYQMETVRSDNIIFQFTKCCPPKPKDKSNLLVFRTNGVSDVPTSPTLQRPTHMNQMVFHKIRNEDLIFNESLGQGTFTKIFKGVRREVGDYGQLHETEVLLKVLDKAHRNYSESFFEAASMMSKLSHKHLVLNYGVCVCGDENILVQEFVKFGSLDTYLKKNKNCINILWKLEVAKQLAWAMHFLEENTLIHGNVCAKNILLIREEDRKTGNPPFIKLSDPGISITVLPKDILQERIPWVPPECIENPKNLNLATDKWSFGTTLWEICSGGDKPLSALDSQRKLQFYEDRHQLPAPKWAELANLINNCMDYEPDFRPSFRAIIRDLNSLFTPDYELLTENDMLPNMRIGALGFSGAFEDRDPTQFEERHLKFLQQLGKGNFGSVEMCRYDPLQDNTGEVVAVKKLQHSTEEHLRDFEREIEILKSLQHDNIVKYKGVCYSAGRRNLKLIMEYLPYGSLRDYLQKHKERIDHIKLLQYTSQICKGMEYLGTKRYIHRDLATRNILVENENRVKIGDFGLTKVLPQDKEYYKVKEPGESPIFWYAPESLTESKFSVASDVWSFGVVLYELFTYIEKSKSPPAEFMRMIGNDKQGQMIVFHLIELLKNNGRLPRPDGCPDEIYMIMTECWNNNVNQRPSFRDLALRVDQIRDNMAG

[5] = target: Tyrosine-protein kinase JAK1 (Mus musculus, UniProt P52332); assay: Inhibition of FLAG-tagged mouse JAK1 expressed in insect Sf9 cells using biotin-EQEDEPEGDYFEWLE-NH2 as substrate
Sequence of Tyrosine-protein kinase JAK1 (Mus musculus, UniProt P52332) (P52332 whole entry): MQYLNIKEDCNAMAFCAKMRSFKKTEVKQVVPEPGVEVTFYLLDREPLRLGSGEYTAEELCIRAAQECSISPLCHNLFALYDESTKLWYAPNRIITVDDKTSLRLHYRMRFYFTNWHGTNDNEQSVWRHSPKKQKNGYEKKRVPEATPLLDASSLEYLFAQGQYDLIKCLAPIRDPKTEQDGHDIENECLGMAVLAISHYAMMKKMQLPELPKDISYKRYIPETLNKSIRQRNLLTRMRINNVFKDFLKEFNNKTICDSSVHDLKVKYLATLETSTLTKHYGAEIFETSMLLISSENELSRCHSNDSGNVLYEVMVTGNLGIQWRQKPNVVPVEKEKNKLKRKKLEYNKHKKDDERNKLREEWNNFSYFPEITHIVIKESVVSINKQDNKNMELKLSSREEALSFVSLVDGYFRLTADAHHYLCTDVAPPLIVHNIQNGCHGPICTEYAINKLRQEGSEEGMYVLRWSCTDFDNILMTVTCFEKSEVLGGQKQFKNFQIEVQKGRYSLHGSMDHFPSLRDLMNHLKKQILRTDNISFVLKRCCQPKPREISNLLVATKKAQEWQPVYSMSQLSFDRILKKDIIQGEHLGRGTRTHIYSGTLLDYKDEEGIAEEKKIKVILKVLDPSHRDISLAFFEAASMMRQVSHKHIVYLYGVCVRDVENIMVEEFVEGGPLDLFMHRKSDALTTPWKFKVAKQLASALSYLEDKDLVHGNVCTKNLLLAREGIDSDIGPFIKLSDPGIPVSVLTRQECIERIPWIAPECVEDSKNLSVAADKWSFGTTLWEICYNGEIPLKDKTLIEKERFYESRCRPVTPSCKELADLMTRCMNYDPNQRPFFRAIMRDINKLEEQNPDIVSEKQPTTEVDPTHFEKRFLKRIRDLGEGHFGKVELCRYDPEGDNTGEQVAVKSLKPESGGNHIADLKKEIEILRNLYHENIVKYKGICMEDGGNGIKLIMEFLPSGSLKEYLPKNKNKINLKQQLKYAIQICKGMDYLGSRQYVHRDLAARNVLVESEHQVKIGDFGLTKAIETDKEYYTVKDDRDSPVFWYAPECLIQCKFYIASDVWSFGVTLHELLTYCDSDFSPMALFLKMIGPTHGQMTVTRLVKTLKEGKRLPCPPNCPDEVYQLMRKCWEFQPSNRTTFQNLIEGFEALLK

IC50 [1] [µM] | IC50 [2] [µM] | IC50 [3] [µM] | IC50 [4] [µM] | IC50 [5] [µM] | Compound
12.4 | 30.7 | 5.3 | – | – | NCCCn1c2ccc(C(N)=O)cc2nc1[C@H]1CC[C@H](O)CC1
14.3 | 31 | 5.4 | – | – | NCCCn1c(C2CCNCC2)nc2cc(C(N)=O)ccc21
20.6 | 42.2 | 7 | 29.7 | – | NC(=O)c1ccc2c(c1)nc([C@H]1CC[C@H](O)CC1)n2CCCO
1.9 | 5.6 | 0.15 | 3.9 | – | CNCCn1c2ccc(C(N)=O)cc2nc1[C@H]1CC[C@H](O)CC1
– | – | – | – | 0.05 | NCCn1c(C2CCNCC2)nc2cc(C(N)=O)ccc21
1.5 | 4.1 | 0.09 | 3.1 | – | CNCCn1c(C2CCNCC2)nc2cc(C(N)=O)ccc21
8.5 | 25.7 | 2 | 12.1 | – | C[C@@H](O)Cn1c2ccc(C(N)=O)cc2nc1[C@H]1CC[C@H](O)CC1
1.8 | 4.3 | 0.08 | 3.2 | – | NC(=O)c1ccc2c(c1)nc([C@H]1CC[C@H](O)CC1)n2CCO

Reference: ChEMBL document CHEMBL3813615, “Novel JAK1-selective benzimidazole inhibitors with enhanced membrane permeability” (Bioorg Med Chem Lett, 2016)
